From patent US8491938B2, “Potent inhibitory effect of zinc in combination with sulforaphane on cancer cell growth” (University of Maryland, Baltimore, priority 2009, dated 2013)
Like-named read-outs stand apart in the source and are kept apart here.

Assays:
Type in all cases: cell-based, human
[1] = tested on: PC-3 cells; assay: MTT cell viability assay, PC-3 cells; conditions: for effect on growth inhibitory effect of zinc, SFN and their combination: PC-3, inhibitor 6 mM pretreatment; for effect on growth inhibitory effect of zinc, SFN and their combination / IC50: MTT; for IC50: PC-3 cells, single agent, read-out: 50% inhibitory concentration (IC50)
Method: Two human prostatic cell lines were used: a) HPR-1, a cell line derived from normal human prostate epithelial cells (kindly provided by Dr. C. K. Choo, University of Hong Kong, Hong Kong, China); and b) PC-3, a human malignant prostate cell line (ATCC, Rockville, Md.). HPR-1 cells were cultured in keratinocyte medium supplemented with epidermal growth factor (EGF) ([…]) and bovine pituitary extracts (25 mg/500 ml) (Gibco BRL, Life Technologies, Bethesda, Md.). PC-3 cells were cultured in RPMI-1640 medium with 5% or 10% of fetal bovine serum (FBS), respectively. All media were supplemented with penicillin/streptomycin (1 U/ml, Invitrogen), and the cells were maintained at 37° C. in a humidified incubator with 5% CO2. The passages of the cell lines were within the range of 5-40. Once the cell density reached 50-60% confluence, the growth media were replaced by fresh serum/supplement-free medium for 24 h to synchronize cell growth. The cells were then treated with or without zinc sulfate (concentrations as indicated in the legends) in fresh serum/supplement-free medium for 0, 1, 3, 6, 12, and 24 h, respectively.
(§1) Cell viability and proliferation were evaluated with the MTT assay. The cells were seeded at a density of 9×10^3 cells/well in a 96 well plate containing 100 μl culture medium/well. After attachment, cells were treated with or without zinc and/or SFN at various concentrations in serum/supplement free medium. After 24 h treatment, 10 μl MTT (5 mg/ml, sigma) was added into each well and incubated at 37° C. for 1 h. Then the medium was removed and 100 μl dimethyl sulfoxide (DMSO) was added to dissolve water-insoluble formazan crystals converted from water-soluble MTT by living cells. The color absorbency of formazan was detected at a wavelength of 540 nm using a microplate reader (Molecular Devices).
[formula] experiments were designed by a statistics-based method utilizing the maximal power design developed by Fang and Tan(2003, 2008) and the corresponding SynStat version 1.beta software (http://www.umgcc.org/research/biostat_software.htm), This method uses uniform measures maximizes the minimum power of the F-test to detect departures from the additive action of drugs. […] With the information from experiments of single agents, SynStat derived 21 mixtures of the two agents and 6 replicates at each mixture based on the pooled variations in single agent experiments, which have 80% statistical power to detect at least a 15% difference in viability between the predicted additive values and the observed values at a significance level of 5%. Then, cells are exposed to these 21 mixtures and the cytotoxicity of this combination is determined. Upon completion of the experiments, we use the F-statistic given by Tan et al. (2003) to test the hypothesis of the additive action of two agents and calculate the p-value of the F-test. If the p-value is greater than 0.05, we can accept the hypothesis of the additive action of two agents. Otherwise, we calculate the interaction index (τ), which is proposed by Berenbaum who adopted the Lowe additivity model (Berenbaum, 1977) where, for a given cytotoxic effect, xA and xB are the concentrations of zinc and SFN in the combination, and XA and XB are the concentrations of zinc and SFN respectively that achieve the same cytotoxic effect when given alone. A τ value of 1 indicates additivity; τ<1 indicates synergy, and τ>1 indicates antagonism.

[2] = tested on: PC-3 cells; assay: ROS detection (carboxy-H2DCFDA, flow cytometry) in PC-3 cells; conditions: for effect on ROS production induced by zinc, SFN or zinc/SFN combination / effect on surge of ROS induced by zinc/SFN combination: PC-3, inhibitor 6 mM; for effect on ROS production induced by zinc, SFN or zinc/SFN combination: 30 min pretreatment, 6 h and 24 h; for effect on surge of ROS induced by zinc/SFN combination: 24 h of treatment; for increase of ROS levels: PC-3, SFN alone
Method: 5-(and-6)-carboxy-2 ′,7 ′-dichlorodihydrofluorescein diacetate (carboxy-H2DCFDA,) was used to determine the intracellular ROS levels of individual cells. In living cells, this compound is oxidized and converted to the 2′,7′-dichlorofluoroscein (DCF) that is highly fluorescent. In the experiments, PC-3 cells cultured on 12-well plates were incubated in serum-free medium containing zinc sulfate ([…])/SFN (12 μM). Thirty min prior to the completion of the time course, carboxy-H2DCFDA was added at a final concentration of 5 μM. Cells were then collected and washed once with PBS. The fluorescent intensity of DCF was assayed by FACScan (Becton Dickinson)[3].

[3] = tested on: PC-3 cells; assay: Mitochondrial membrane potential (MMP) detection, DiOC6(3)/PI flow cytometry, PC-3 cells; conditions: for effect on MMP alteration induced by zinc/SFN: PC-3, pretreatment 30 min, treatment 24 h; for effect on MMP versus control, single agent: PC-3, zinc alone or SFN 12 μM alone
Excerpt: Cell flow cytometric analysis with 3,3′-dihexyloxacarbocyanine iodide (DiOC6(3); Invitrogen, Carlsbad, Calif.) and propidium iodide (PI;BD Pharmingen, San Jose, Calif.) was used to evaluate MMP and apoptosis of the cells. The fluorescence dye DiOC6(3) is featured by its accumulation in the mitochondrial matrix, which is resulted from negative mitochondrial membrane potential within viable cells. Thus, the changes of fluorescence of DiOC6(3) reflect the MMP alteration of the cells. Another fluorescence dye PI is cell membrane impermeable and able to stain DNA once cell membrane integrity is damaged during apoptosis. In the experiments, after treatments, cells (2.5×10^5/ml) were incubated with 100 nM DiOC6(3) in PBS for 15 min at 37° C. Then the cells were washed in PBS once, followed by incubation with 2.5 μg/ml PI for additional 10 min at room temperature. The samples were subjected to cell flow cytometric analysis, and FACScan (Becton Dickinson) was used to analyze the fluorescence of DIOC6(3) and PI [2].

[4] = tested on: HPR-1 cells; assay: MTT cell viability assay, HPR-1 cells
Method: as §1, with “Two human prostatic cell lines were used: a) HPR-1, a cell line derived from normal human prostate epithelial cells (kindly provided by Dr. C. K. Choo, University of Hong Kong, Hong Kong, China); and b) PC-3, a human malignant prostate cell line (ATCC, Rockville, Md.). HPR-1 cells were cultured in keratinocyte medium supplemented with epidermal growth factor (EGF) ([…]) and bovine pituitary extracts (25 mg/500 ml) (Gibco BRL, Life Technologies, Bethesda, Md.). […] The passages of the cell lines were within the range of 5-40. […] Cell” for “Cell”

[5] = tested on: cytochrome c, pro-caspase 3 and PARP; assay: Western blot of apoptosis proteins in PC-3 cells; conditions: PC-3, zinc 12.5 μM or SFN 12 μM alone, 24 h
Method: Total cellular proteins from the experimental samples were extracted by radioimmuno-precipitation assay (RIPA) lysis buffer (Upstate, Lake Placid, N.Y.) containing protease inhibitor (Roche Diagnostics Gmbh, Mannheim, Germany). The protein extracts (30 μg/lane) were applied to electrophoresis on an SDS-polyacrylamide gel, and then, a transferred poly(vinylidene fluoride) (PVDF) membrane (Millipore, Billerica, Mass.) was blocked in 5% nonfat dry milk in phosphate buffered saline (PBS) containing 0.05% Tween-20 (Sigma, St. Louis, Mo.) (PBST) for 1 hr at room temperature followed by the hybridization to the primary antibodies against PARP (BD pharmingen, San Jose, Calif.), caspase 3 (BD pharmingen, San Jose, Calif.), p-JNK and JNK1 (Santa Cruz, Calif.), pP38 and P38 (Cell Signaling Technology, Danvers, Mass.), ppERK1/2 (Sigma, St. Louis, Mo.), ERK1/2 (Cell Signaling Technology, Danvers, Mass.) at 4° C. overnight. After washing, the membranes were incubated with corresponding second antibodies. Beta-actin (Sigma, St. Louis, Mo.) and GAPDH (Cell Signaling Technology, Danvers, Mass.) were used as internal controls to monitor the sample loadings. […] The signals of targeted bands were scanned and quantified with an LKB Ultra Scan XL laser densitometer (Image Quant, Molecular Dynamics, Sunnyvale, Calif.). […]

[6] = tested on: MT1/2; assay: Western blot of MT1/2 expression in PC-3 cells; conditions: zinc at 24 h, SFN and combination at 6 and 24 h
Method: (§2) Total cellular proteins from the experimental samples were extracted by radioimmuno-precipitation assay (RIPA) lysis buffer (Upstate, Lake Placid, N.Y.) containing protease inhibitor (Roche Diagnostics Gmbh, Mannheim, Germany). The protein extracts (30 μg/lane) were applied to electrophoresis on an SDS-polyacrylamide gel, and then, a transferred poly(vinylidene fluoride) (PVDF) membrane (Millipore, Billerica, Mass.) was blocked in 5% nonfat dry milk in phosphate buffered saline (PBS) containing 0.05% Tween-20 (Sigma, St. Louis, Mo.) (PBST) for 1 hr at room temperature followed by the hybridization to the primary antibodies against PARP (BD pharmingen, San Jose, Calif.), caspase 3 (BD pharmingen, San Jose, Calif.), p-JNK and JNK1 (Santa Cruz, Calif.), pP38 and P38 (Cell Signaling Technology, Danvers, Mass.), ppERK1/2 (Sigma, St. Louis, Mo.), ERK1/2 (Cell Signaling Technology, Danvers, Mass.) at 4° C. overnight. After washing, the membranes were incubated with corresponding second antibodies. Beta-actin (Sigma, St. Louis, Mo.) and GAPDH (Cell Signaling Technology, Danvers, Mass.) were used as internal controls to monitor the sample loadings. […] The signals of targeted bands were scanned and quantified with an LKB Ultra Scan XL laser densitometer (Image Quant, Molecular Dynamics, Sunnyvale, Calif.).

[7] = tested on: MT1/2; assay: Western blot of MT1/2 expression in HPR-1 cells; conditions: zinc at 24 h, SFN at 6 h and 24 h
Method: as §2

[8] = tested on: p38; assay: Western blot of p38 activation in PC-3 cells; conditions: PC-3, 6 h treatment, versus control
Method: as §2

Compound	effect on growth inhibitory effect of zinc, SFN and their combination [1]	effect on ROS production induced by zinc, SFN or zinc/SFN combination [2]	effect on surge of ROS induced by zinc/SFN combination [2]	effect on MMP alteration induced by zinc/SFN [3]	IC50 ([1]; 24 h) [µM]	PC-3 cells that could survive ([1]; zinc 30 μM, 24 h)	HPR-1 cells still alive ([4]; zinc 30 μM, 24 h)	response of HPR-1 cells to zinc ([4]; zinc alone at doses of the six selected combinations, 24 h)	apoptotic effect (cytochrome c, pro-caspase 3, PARP), single agent [5]	increase of ROS level ([2]; PC-3, zinc alone, late time points (12 to 24 h))	effect on MMP versus control, single agent [3]	MT1/2 protein levels [6]	MT1/2 protein levels [7]	phosphorylation of p38 [8]	IC50 ([1]; Homo sapiens, 24 h) [µM]	HPR-1 cells still alive (plateau) ([4]; SFN 25 μM and even higher, 24 h) [%]	response of HPR-1 cells to lower concentration of SFN ([4]; SFN <10 μM, 24 h)	proliferation of HPR-1 cells ([4]; SFN at the range of 10 to 25, 24 h, less effective than in PC-3 cells)	increase of ROS levels ([2]; late time points (12 to 24 h), first value)	increase of ROS levels ([2]; late time points (12 to 24 h), second value) [%]
CC(=O)N[C@@H](CS)C(=O)O [NAC, N-Acetyl Cysteine]	concordantly abolished	significantly inhibited ROS production	completely abolished	completely prevented																
O=S(=O)([O-])[O-].[Zn+2] [zinc, zinc sulfate]					16.2 ± 0.9	less than 20%	around 90%	no response	lack of cell responses	40-50%	increase one fold	significant induction	induce expression of MT1/2 significantly	increased phosphorylation of p38						
N[C@@H](CCC(=O)N[C@@H](CS)C(=O)NCC(=O)O)C(=O)O [GSH, reduced glutathionein]	concordantly abolished	significantly inhibited ROS production	completely abolished	completely prevented																
C[S+]([O-])CCCCN=C=S (centres unmarked) [SFN, 1-Isothiocyanato-4-methylsulfinylbutane]									lack of cell responses		did not affect MMP at all	no effect or a slight inhibition	decreased expression of MT1/2	increased phosphorylation of p38	20.3 ± 0.8	60	no response	inhibited in a dose-dependent pattern	about 35%	~55
